Legend:
L1210 = assay: Antiproliferative activity against mouse L1210 cells after 72 hrs by phosphatase assay; assay type: functional, cell-based; details: L1210, 72 h
HCT-116 = assay: Antiproliferative activity against human HCT116 cells after 72 hrs by phosphatase assay; assay type: functional, cell-based; details: HCT-116, 72 h
[1] = Cytotoxicity against human HCT116/VM46 cells assessed as reduction in cell viability after 72 hrs by phosphatase assay; assay type: cell-based; details: HCT-116/VM46, 72 h

SMILES	IC50 (L1210) [nM]	IC50 (HCT-116) [nM]	IC50 [1] [nM]
CC[C@]1(NC(=O)c2ccc(SC(C)C)cc2)C[C@H]2CN(CCc3c([nH]c4ccccc34)[C@@](C(=O)OC)(c3cc4c(cc3OC)N(C)[C@H]3[C@@](O)(C(=O)OC)[C@H](OC(C)=O)[C@]5(CC)C=CCN6CC[C@]43[C@@H]65)C2)C1	4.3	4.6	55
CC[C@]1(NC(=O)c2ccc(NC(C)=O)cc2)C[C@H]2CN(CCc3c([nH]c4ccccc34)[C@@](C(=O)OC)(c3cc4c(cc3OC)N(C)[C@H]3[C@@](O)(C(=O)OC)[C@H](OC(C)=O)[C@]5(CC)C=CCN6CC[C@]43[C@@H]65)C2)C1	1.6	0.8	55
CC[C@]1(NC(=O)c2ccc(OC(C)(C)C)cc2)C[C@H]2CN(CCc3c([nH]c4ccccc34)[C@@](C(=O)OC)(c3cc4c(cc3OC)N(C)[C@H]3[C@@](O)(C(=O)OC)[C@H](OC(C)=O)[C@]5(CC)C=CCN6CC[C@]43[C@@H]65)C2)C1	0.6	0.6	6.8
CC[C@]1(NC(=O)c2ccc(OC)cc2F)C[C@H]2CN(CCc3c([nH]c4ccccc34)[C@@](C(=O)OC)(c3cc4c(cc3OC)N(C)[C@H]3[C@@](O)(C(=O)OC)[C@H](OC(C)=O)[C@]5(CC)C=CCN6CC[C@]43[C@@H]65)C2)C1	6.2	6.4	70
CC[C@]1(NS(=O)(=O)c2c(C)cc(C)cc2C)C[C@H]2CN(CCc3c([nH]c4ccccc34)[C@@](C(=O)OC)(c3cc4c(cc3OC)N(C)[C@H]3[C@@](O)(C(=O)OC)[C@H](OC(C)=O)[C@]5(CC)C=CCN6CC[C@]43[C@@H]65)C2)C1	500	580	710
CC[C@]1(NC(=O)c2cc(C)cc(C)c2)C[C@H]2CN(CCc3c([nH]c4ccccc34)[C@@](C(=O)OC)(c3cc4c(cc3OC)N(C)[C@H]3[C@@](O)(C(=O)OC)[C@H](OC(C)=O)[C@]5(CC)C=CCN6CC[C@]43[C@@H]65)C2)C1	5.4	6	9.2
CC[C@]1(NC(=O)c2ccc(OC(F)(F)F)c(OC)c2)C[C@H]2CN(CCc3c([nH]c4ccccc34)[C@@](C(=O)OC)(c3cc4c(cc3OC)N(C)[C@H]3[C@@](O)(C(=O)OC)[C@H](OC(C)=O)[C@]5(CC)C=CCN6CC[C@]43[C@@H]65)C2)C1	1.3	1.7	6.9
CC[C@]1(NC(=O)c2ccsc2)C[C@H]2CN(CCc3c([nH]c4ccccc34)[C@@](C(=O)OC)(c3cc4c(cc3OC)N(C)[C@H]3[C@@](O)(C(=O)OC)[C@H](OC(C)=O)[C@]5(CC)C=CCN6CC[C@]43[C@@H]65)C2)C1	0.5	0.7	7.7
CC[C@]1(NC(=O)c2ccc(OC)c(OC(F)(F)F)c2)C[C@H]2CN(CCc3c([nH]c4ccccc34)[C@@](C(=O)OC)(c3cc4c(cc3OC)N(C)[C@H]3[C@@](O)(C(=O)OC)[C@H](OC(C)=O)[C@]5(CC)C=CCN6CC[C@]43[C@@H]65)C2)C1	1.7	2.2	17
CC[C@]1(NC(=O)c2ccc3c(c2)CCO3)C[C@H]2CN(CCc3c([nH]c4ccccc34)[C@@](C(=O)OC)(c3cc4c(cc3OC)N(C)[C@H]3[C@@](O)(C(=O)OC)[C@H](OC(C)=O)[C@]5(CC)C=CCN6CC[C@]43[C@@H]65)C2)C1	0.3	0.25	2.4
CCCCCC(=O)N[C@@]1(CC)C[C@H]2CN(CCc3c([nH]c4ccccc34)[C@@](C(=O)OC)(c3cc4c(cc3OC)N(C)[C@H]3[C@@](O)(C(=O)OC)[C@H](OC(C)=O)[C@]5(CC)C=CCN6CC[C@]43[C@@H]65)C2)C1	55	40	450
CC[C@]1(NC(=O)c2cccc(OC(F)(F)F)c2)C[C@H]2CN(CCc3c([nH]c4ccccc34)[C@@](C(=O)OC)(c3cc4c(cc3OC)N(C)[C@H]3[C@@](O)(C(=O)OC)[C@H](OC(C)=O)[C@]5(CC)C=CCN6CC[C@]43[C@@H]65)C2)C1	4.8	5.9	50
CC[C@]1(NC(=O)c2cccc3ccccc23)C[C@H]2CN(CCc3c([nH]c4ccccc34)[C@@](C(=O)OC)(c3cc4c(cc3OC)N(C)[C@H]3[C@@](O)(C(=O)OC)[C@H](OC(C)=O)[C@]5(CC)C=CCN6CC[C@]43[C@@H]65)C2)C1	60	65	220
CC[C@]1(NC(=O)c2ccc3cccnc3c2)C[C@H]2CN(CCc3c([nH]c4ccccc34)[C@@](C(=O)OC)(c3cc4c(cc3OC)N(C)[C@H]3[C@@](O)(C(=O)OC)[C@H](OC(C)=O)[C@]5(CC)C=CCN6CC[C@]43[C@@H]65)C2)C1	0.6	0.7	8.2
CC[C@]1(NC(=O)/C=C/c2ccccn2)C[C@H]2CN(CCc3c([nH]c4ccccc34)[C@@](C(=O)OC)(c3cc4c(cc3OC)N(C)[C@H]3[C@@](O)(C(=O)OC)[C@H](OC(C)=O)[C@]5(CC)C=CCN6CC[C@]43[C@@H]65)C2)C1	0.7	0.7	25
CC[C@]1(NC(=O)c2ccc(C)c(N)c2)C[C@H]2CN(CCc3c([nH]c4ccccc34)[C@@](C(=O)OC)(c3cc4c(cc3OC)N(C)[C@H]3[C@@](O)(C(=O)OC)[C@H](OC(C)=O)[C@]5(CC)C=CCN6CC[C@]43[C@@H]65)C2)C1	0.6	0.7	25
CC[C@]1(NC(=O)c2ccc(NC(=O)OC)cc2)C[C@H]2CN(CCc3c([nH]c4ccccc34)[C@@](C(=O)OC)(c3cc4c(cc3OC)N(C)[C@H]3[C@@](O)(C(=O)OC)[C@H](OC(C)=O)[C@]5(CC)C=CCN6CC[C@]43[C@@H]65)C2)C1	1.5	0.8	55
CC[C@]1(NC(=O)c2ccccc2OC(F)(F)F)C[C@H]2CN(CCc3c([nH]c4ccccc34)[C@@](C(=O)OC)(c3cc4c(cc3OC)N(C)[C@H]3[C@@](O)(C(=O)OC)[C@H](OC(C)=O)[C@]5(CC)C=CCN6CC[C@]43[C@@H]65)C2)C1	450	480	620
CC[C@]1(NC(=O)c2cnccn2)C[C@H]2CN(CCc3c([nH]c4ccccc34)[C@@](C(=O)OC)(c3cc4c(cc3OC)N(C)[C@H]3[C@@](O)(C(=O)OC)[C@H](OC(C)=O)[C@]5(CC)C=CCN6CC[C@]43[C@@H]65)C2)C1	40	20	550
CC[C@]1(NC(=O)C(c2ccccc2)c2ccccc2)C[C@H]2CN(CCc3c([nH]c4ccccc34)[C@@](C(=O)OC)(c3cc4c(cc3OC)N(C)[C@H]3[C@@](O)(C(=O)OC)[C@H](OC(C)=O)[C@]5(CC)C=CCN6CC[C@]43[C@@H]65)C2)C1	760	3800	5100
CC[C@]1(NC(=O)c2ccc3ncccc3c2)C[C@H]2CN(CCc3c([nH]c4ccccc34)[C@@](C(=O)OC)(c3cc4c(cc3OC)N(C)[C@H]3[C@@](O)(C(=O)OC)[C@H](OC(C)=O)[C@]5(CC)C=CCN6CC[C@]43[C@@H]65)C2)C1	0.6	0.6	4.9
CC[C@]1(NC(=O)c2ccc(C)cc2)C[C@H]2CN(CCc3c([nH]c4ccccc34)[C@@](C(=O)OC)(c3cc4c(cc3OC)N(C)[C@H]3[C@@](O)(C(=O)OC)[C@H](OC(C)=O)[C@]5(CC)C=CCN6CC[C@]43[C@@H]65)C2)C1	0.5	0.45	4.5
CC[C@]1(NC(=O)c2ccc3cc4ccccc4cc3c2)C[C@H]2CN(CCc3c([nH]c4ccccc34)[C@@](C(=O)OC)(c3cc4c(cc3OC)N(C)[C@H]3[C@@](O)(C(=O)OC)[C@H](OC(C)=O)[C@]5(CC)C=CCN6CC[C@]43[C@@H]65)C2)C1	40	60	150
CC[C@]1(NC(=O)c2ccc3ccoc3c2)C[C@H]2CN(CCc3c([nH]c4ccccc34)[C@@](C(=O)OC)(c3cc4c(cc3OC)N(C)[C@H]3[C@@](O)(C(=O)OC)[C@H](OC(C)=O)[C@]5(CC)C=CCN6CC[C@]43[C@@H]65)C2)C1	3.3	2.2	6.5
CC[C@]1(NC(=O)c2cccc(Br)c2)C[C@H]2CN(CCc3c([nH]c4ccccc34)[C@@](C(=O)OC)(c3cc4c(cc3OC)N(C)[C@H]3[C@@](O)(C(=O)OC)[C@H](OC(C)=O)[C@]5(CC)C=CCN6CC[C@]43[C@@H]65)C2)C1	5	6.3	60
CCc1ccc(C(=O)N[C@@]2(CC)C[C@H]3CN(CCc4c([nH]c5ccccc45)[C@@](C(=O)OC)(c4cc5c(cc4OC)N(C)[C@H]4[C@@](O)(C(=O)OC)[C@H](OC(C)=O)[C@]6(CC)C=CCN7CC[C@]54[C@@H]76)C3)C2)cc1	0.65	0.7	3.4
CC[C@]1(NC(=O)c2ccc3cccc(OC)c3c2)C[C@H]2CN(CCc3c([nH]c4ccccc34)[C@@](C(=O)OC)(c3cc4c(cc3OC)N(C)[C@H]3[C@@](O)(C(=O)OC)[C@H](OC(C)=O)[C@]5(CC)C=CCN6CC[C@]43[C@@H]65)C2)C1	10	13	70
CC[C@]1(NC(=O)c2ccc3c(c2)OCCN3C)C[C@H]2CN(CCc3c([nH]c4ccccc34)[C@@](C(=O)OC)(c3cc4c(cc3OC)N(C)[C@H]3[C@@](O)(C(=O)OC)[C@H](OC(C)=O)[C@]5(CC)C=CCN6CC[C@]43[C@@H]65)C2)C1	0.3	0.3	4.9
CC[C@]1(NC(=O)c2ccc(C(F)(F)F)cc2)C[C@H]2CN(CCc3c([nH]c4ccccc34)[C@@](C(=O)OC)(c3cc4c(cc3OC)N(C)[C@H]3[C@@](O)(C(=O)OC)[C@H](OC(C)=O)[C@]5(CC)C=CCN6CC[C@]43[C@@H]65)C2)C1	4.3	3.3	55
